# Reference: patent US12649750B2, “Macrocyclic compounds, compositions, and methods of using thereof” (Sionna Therapeutics Inc., priority 2022, dated 2026)
# Key:
# [1] = target: T1, NBD1 (Homo sapiens, UniProt P13569); experiment: Aggregation analysis using differential static light scattering (DSLS), thermal stability of NBD1 (ΔTagg); format: binding; conditions: ΔTagg versus DMSO control, NBD1 0.2 mg/ml
# T1 construct: Purified recombinant NBD1 was produced using previously described methods; made in house
# How it was run: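 Differential static light scattering read from 25° C. to 70° C. every 0.5° C., ramp 1° C./min, on recombinant NBD1 (0.2 mg/ml; Tris/NaCl/MgCl2 buffer with 2 mM ATP, 2 mM DTT, pH 7.6, 1% glycerol) plus compound. Reported ΔTagg subtracts averaged DMSO Tagg from inflection-point Tagg; categories A ≤5, B >5-10, C >10-25° C.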
# [2] = target: T2, CFTR (Homo sapiens, UniProt P13569, DEL508-508); experiment: TECC24 AUC fold over DMSO @10 μM, CFTR-mediated transepithelial chloride transport in CF-HBE cells; format: cell-based; conditions: test agent AUC divided by DMSO vehicle AUC, primary CF-HBE cells, ΔF508 homozygous donor, 48 hours incubation
# T2 construct: Primary human bronchial epithelial cells from a ΔF508 homozygous CF donor; host or cells: primary human bronchial epithelial cells (CF-HBE), ΔF508 homozygous donor
# How it was run: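 ΔF508-homozygous primary bronchial epithelial cells incubated 48 h at 36.5° C with compound (10 μM) in IL-13-containing medium, then TECC24 current-clamp recording in pH 7.4 Hepes saline with benzamil 10 μM, forskolin 10 μM, then CFTR inhibitor-172 20 μM. Equivalent Cl− current AUC between forskolin and inhibitor, expressed as fold over DMSO.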
# T1 sequence (P13569 423-646 limits assumed): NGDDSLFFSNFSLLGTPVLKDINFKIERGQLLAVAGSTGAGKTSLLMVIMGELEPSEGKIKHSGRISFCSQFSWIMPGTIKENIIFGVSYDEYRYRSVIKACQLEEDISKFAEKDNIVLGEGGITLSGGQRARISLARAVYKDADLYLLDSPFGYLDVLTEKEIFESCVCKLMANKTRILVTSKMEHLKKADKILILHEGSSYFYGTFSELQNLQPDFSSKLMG
# T2 sequence (P13569 with tags, fused parts or gaps DEL508-508): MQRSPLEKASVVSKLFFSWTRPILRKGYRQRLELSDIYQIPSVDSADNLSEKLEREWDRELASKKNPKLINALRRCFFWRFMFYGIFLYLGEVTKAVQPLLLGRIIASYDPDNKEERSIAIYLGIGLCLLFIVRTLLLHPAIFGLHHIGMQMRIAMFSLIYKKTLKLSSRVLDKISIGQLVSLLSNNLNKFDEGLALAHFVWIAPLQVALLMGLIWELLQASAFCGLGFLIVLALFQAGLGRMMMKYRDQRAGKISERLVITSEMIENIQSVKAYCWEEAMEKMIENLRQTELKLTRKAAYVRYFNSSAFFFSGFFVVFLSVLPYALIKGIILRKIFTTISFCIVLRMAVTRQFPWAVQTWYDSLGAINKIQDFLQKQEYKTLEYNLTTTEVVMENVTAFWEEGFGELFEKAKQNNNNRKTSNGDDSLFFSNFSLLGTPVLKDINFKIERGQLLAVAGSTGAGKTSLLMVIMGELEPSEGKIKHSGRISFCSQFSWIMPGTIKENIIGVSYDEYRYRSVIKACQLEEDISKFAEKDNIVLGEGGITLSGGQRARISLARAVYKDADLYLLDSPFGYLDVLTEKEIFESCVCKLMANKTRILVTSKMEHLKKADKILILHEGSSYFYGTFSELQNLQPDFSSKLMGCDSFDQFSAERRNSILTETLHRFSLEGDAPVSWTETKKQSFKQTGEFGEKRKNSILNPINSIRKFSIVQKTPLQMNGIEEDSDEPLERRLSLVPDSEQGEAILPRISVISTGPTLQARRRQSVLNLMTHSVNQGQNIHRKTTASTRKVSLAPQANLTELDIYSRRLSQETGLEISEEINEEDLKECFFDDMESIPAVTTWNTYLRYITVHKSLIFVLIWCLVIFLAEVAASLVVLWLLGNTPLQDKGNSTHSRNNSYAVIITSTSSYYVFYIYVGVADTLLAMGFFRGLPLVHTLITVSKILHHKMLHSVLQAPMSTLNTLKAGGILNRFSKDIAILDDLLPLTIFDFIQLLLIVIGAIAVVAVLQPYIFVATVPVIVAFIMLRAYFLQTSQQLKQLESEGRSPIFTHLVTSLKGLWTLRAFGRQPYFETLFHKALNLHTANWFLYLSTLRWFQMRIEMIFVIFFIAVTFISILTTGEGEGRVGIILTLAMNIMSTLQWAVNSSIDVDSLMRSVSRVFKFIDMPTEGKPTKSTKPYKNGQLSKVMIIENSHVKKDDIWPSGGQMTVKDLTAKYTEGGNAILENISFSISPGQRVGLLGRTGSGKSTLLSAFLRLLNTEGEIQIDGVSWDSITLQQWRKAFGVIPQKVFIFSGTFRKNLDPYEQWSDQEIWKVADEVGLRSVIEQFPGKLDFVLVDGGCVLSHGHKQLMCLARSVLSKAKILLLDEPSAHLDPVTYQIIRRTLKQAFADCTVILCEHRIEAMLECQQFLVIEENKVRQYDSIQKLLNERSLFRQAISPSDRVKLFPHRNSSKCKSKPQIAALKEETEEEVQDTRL
SMILES,DSLS 3D (100 μM ΔT) [1],"TECC (AUC, 10 μM) [2]"
"C[C@@H](Cc1cccc([C@@]2(C)CCCC(C)(C)CS(=O)(=O)CCc3c(c(F)cc4[nH]ccc34)Oc3cncc(c3)-c3nc2nn3C)c1)C(=O)O [Compound 244, (2S)-3-[3-[(6R)-22-fluoro-3,6,10,10-tetramethyl-12,12-dioxo-24-oxa-12λ6-thia-3,4,19,27,30-pentazapentacyclo[23.3.1.12,5.015,23.016,20]triaconta-1(29),2(30),4,15(23),16(20),17,21,25,27-nonaen-6-yl]phenyl]-2-methyl-propanoic Acid]",C (a value greater than 10 °C and less than or equal to 25 °C is marked “C”),C (a value between 20 and 80 is marked “C”)
"O=C1CCCS(=O)(=O)CCc2c(c(F)cc3[nH]ccc23)Oc2ccc(F)c(c2)-c2ncc([nH]2)C(c2ccccc2)N1 (single isomer, unassigned) [Compound 83, 22,28-difluoro-12,12-dioxo-6-phenyl-24-oxa-12lambda6-thia-3,7,19,30-tetrazapentacyclo [23.3.1.12,5.015,23.016,20]-triaconta-1(29),2,4,15,17,20,22,25,27-nonaen-8-one]",B (a value above 5 °C and less than or equal to 10 °C is marked “B”),A (a TECC value less than 12 is marked “A”)
"C[C@H](Cc1cccc(C2(C)CCCC(C)(C)CS(=O)(=O)CCc3c(c(F)cc4[nH]ccc34)Oc3ccc(F)c(c3)-c3nc2c[nH]3)c1)C(=O)O (single isomer, unassigned) [Compound 157A]",A (an ΔTagg value less than or equal to 5 °C is marked “A”),A (a TECC value less than 12 is marked “A”)
"Cn1nc2nc1-c1cc(ccc1F)Oc1c(F)cc3[nH]ccc3c1CCS(=O)(=O)CC(C)(C)CCCC2(C#N)c1cccc(CC2(C(=O)O)CC2)c1 (single isomer, unassigned) [Compound 122A, 1-[[3-(6-cyano-22,28-difluoro-3,10,10-trimethyl-12,12-dioxo-24-oxa-12λ6-thia-3,4,19,30-tetrazapentacyclo[23.3.1.12,5.015,23.016,20]triaconta-1(29),2(30),4,15,17,20,22,25,27-nonaen-6-yl)phenyl]methyl]cyclopropanecarboxylic Acid]",C (a value greater than 10 °C and less than or equal to 25 °C is marked “C”),A (a TECC value less than 12 is marked “A”)
"Cn1nc2nc1-c1cc(ccc1F)Cc1c(F)cc3[nH]ccc3c1CCS(=O)(=O)CC(C)(C)CCCC2(C)c1cccc(CCC(=O)O)c1 (single isomer, unassigned) [Compound 32A, 3-[3-(22,28-Difluoro-3,6,10,10-tetramethyl-12,12-dioxo-12lambda6-thia-3,4,19,30-tetrazapentacyclo[23.3.1.12,5.015,23.016,20]triaconta-1(29),2(30),4,15,17,20,22,25,27-nonaen-6-yl)phenyl]propanoic Acid]",A (an ΔTagg value less than or equal to 5 °C is marked “A”),A (a TECC value less than 12 is marked “A”)
"C[C@H](Cc1ccc(C2(C)CCCC(C)(C)CS(=O)(=O)CCc3c(c(F)cc4[nH]ccc34)Oc3ccnc(c3)-c3nc2nn3C)s1)C(=O)O (single isomer, unassigned) [Compound 246A]",C (a value greater than 10 °C and less than or equal to 25 °C is marked “C”),B (a value between 12-20 is marked “B”)
"Cn1nc2nc1-c1cc(ccc1F)[S+]([O-])c1c(F)cc3[nH]ccc3c1CCS(=O)(=O)CC(C)(C)CCC[C@]2(C)c1cccc(CC(=O)O)c1 (single isomer, unassigned) [Compound 209B]",C (a value greater than 10 °C and less than or equal to 25 °C is marked “C”),C (a value between 20 and 80 is marked “C”)
"[2H]C([2H])([2H])C1(c2cccc(CC(C)C(=O)O)c2)CCCC(C([2H])([2H])[2H])(C([2H])([2H])[2H])CS(=O)(=O)CCc2c(c(F)cc3[nH]ccc23)Oc2ccc(F)c(c2)-c2nc1nn2C (single isomer, unassigned) [Compound 9B, 3-[3-[22,28-difluoro-3-methyl-12,12-dioxo-6,10,10-tris(trideuteriomethyl)-24-oxa-12lambda6-thia-3,4,19,30-tetrazapentacyclo[23.3.1.12,5.015,23.016,20]triaconta-1(29),2(30),4,15,17,20,22,25,27-nonaen-6-yl]phenyl]-2-methyl-propanoic Acid]",A (an ΔTagg value less than or equal to 5 °C is marked “A”),A (a TECC value less than 12 is marked “A”)
"Cn1nc2nc1-c1cc(ccn1)Oc1c(F)cc3[nH]ccc3c1CCS(=O)(=O)CC(C)(C)CCC[C@]2(C)c1cccc(CCC(=O)O)c1 (racemic) [Compound 228, 3-[3-[rac-(6R)-22-fluoro-3,6,10,10-tetramethyl-12,12-dioxo-24-oxa-12λ6-thia-3,4,19,28,30-pentazapentacyclo[23.3.1.12,5.015,23.016,20]triaconta-1(29),2(30),4,15,17,20,22,25,27-nonaen-6-yl]phenyl]propanoic acid]",C (a value greater than 10 °C and less than or equal to 25 °C is marked “C”),C (a value between 20 and 80 is marked “C”)
"C/C(=C\c1cc(F)cc(C2(C)CCCC(C)(C)CS(=O)(=O)CCc3c(c(F)c(F)c4[nH]ccc34)Oc3ccc(F)c(c3)-c3nc2nn3C)c1)C(=O)O (single isomer, unassigned) [Compound 17B, (E)-3-(3-fluoro-5-((Z)-26,46,47-trifluoro-11,9,9,13-tetramethyl-7,7-dioxido-1I1H,41H-3-oxa-7-thia-4(5,4)-indola-1(5,3)-triazola-2(1,3)-benzenacyclotridecaphane-13-yl)phenyl)-2-methylacrylic acid]",C (a value greater than 10 °C and less than or equal to 25 °C is marked “C”),A (a TECC value less than 12 is marked “A”)
"CC(Cc1cccc(C2(C)CCCC(C)(C)CS(=O)(=O)CCc3c(c(F)cc4[nH]ccc34)Sc3ccc(F)c(c3)-c3nc2nn3C)c1)C(=O)O (single isomer, unassigned) [Compound 33B, 3-[3-(22,28-difluoro-3,6,10,10-tetramethyl-12,12-dioxo-12lambda6,24-dithia-3,4,19,30-tetrazapentacyclo[23.3.1.12,5.015,23.016,20]triaconta-1(29),2(30),4,15,17,20,22,25,27-nonaen-6-yl)phenyl]-2-methyl-propanoic Acid]",B (a value above 5 °C and less than or equal to 10 °C is marked “B”),A (a TECC value less than 12 is marked “A”)
"C[C@H](Cc1cccc(C2(C)CCCC(C)(C)CS(=O)(=O)CCc3c(c(F)cc4[nH]ccc34)Oc3cc(ccn3)-c3nc2nn3C)c1)C(=O)O (single isomer, unassigned) [Compound 184]",B (a value above 5 °C and less than or equal to 10 °C is marked “B”),A (a TECC value less than 12 is marked “A”)
"[2H]C([2H])([2H])C1(c2cccc(CC(C)C(=O)O)c2)COCC(C)(C)CS(=O)(=O)CCc2c(c(F)c(F)c3[nH]ccc23)Oc2ccc(F)c(c2)-c2nc1nn2C (single isomer, unassigned) [Compound 118A, 2-methyl-3-[3-[21,22,28-trifluoro-3,10,10-trimethyl-12,12-dioxo-6-(trideuteriomethyl)-8,24-dioxa-12λ6-thia-3,4,19,30-tetrazapentacyclo[23.3.1.12,5.015,23.016,20]triaconta-1(29),2(30),4,15,17,20,22,25,27-nonaen-6-yl]phenyl]propanoic acid]",C (a value greater than 10 °C and less than or equal to 25 °C is marked “C”),A (a TECC value less than 12 is marked “A”)
"C[C@@H](Cc1cccc([C@@]2(C)CCCC(C)(C)CS(=O)(=O)CCc3c(c(F)cc4[nH]ccc34)[S+]([O-])c3ccc(F)c(c3)-c3nc2nn3C)c1)C(=O)O (single isomer, unassigned) [Compound 204]",C (a value greater than 10 °C and less than or equal to 25 °C is marked “C”),C (a value between 20 and 80 is marked “C”)
"Cn1nc2nc1-c1cc(ccc1F)Oc1c(F)cc3[nH]ccc3c1CCS(=O)(=O)CC(C)(C)C(F)(F)CCC2(C)c1cccc(CCC(=O)O)c1 (stereo not drawn) [Compound 106, 3-[3-(9,9,22,28-Tetrafluoro-3,6,10,10-tetramethyl-12,12-dioxo-24-oxa-12lambda6-thia-3,4,19,30-tetrazapentacyclo[23.3.1.12,5.015,23.016,20]triaconta-1(29),2(30),4,15,17,20,22,25,27-nonaen-6-yl)phenyl]propanoic Acid]",C (a value greater than 10 °C and less than or equal to 25 °C is marked “C”),A (a TECC value less than 12 is marked “A”)
